Source: patent US9399031B2, “Combined use of amides of mono- and dicarboxylic acids and silymarin in the treatment of renal diseases” (Epitech Group S.r.l., priority 2013, dated 2016)

What was measured:
[1] = test system: renal ischemia/reperfusion; assay: Experimental renal ischemia/reperfusion model; assay type: in vivo; settings: mice, bilateral renal ischemia 30 minutes, 6 hours post-reperfusion; compared to the carrier alone; FIGS. 1 and 2
Protocol: After being anesthesized with sodium pentobarbital (50 mg/kg i.p.), mice were placed on a heated mat to keep their body temperature at 37° C. during surgery. After a laparatomy, mice were subjected to bilateral renal ischemia during 30 minutes, during which renal arteries and veins were occluded by microaneurysm clamps. The ischemia time selected was based on the time capable of maximizing the reproducibility of the renal function unbalance, while minimizing animal death. After removing renal clamps, kidneys were observed during additional 5 minutes to confirm complete reperfusion, and subsequently 1 ml saline was injected into the abdomen and incision was sutured. […] All plasma samples were analyzed for assessing the biochemical parameters within 24 hours post-withdrawal. Plasma concentrations of urea and creatinine were measured as indicators of the impaired glomerular function. […] Absorbance change rate was spectrometrically measured at 650 nm. […] Determination of Malondialdehyde Levels Malondialdehyde (MDA) levels in kidneys were determined as an indicator of lipid peroxidation. […] Supernatant absorbance was spectrometrically measured at 532 nm. MDA levels were expressed as μM/100 mg wet tissue. […] Total scoring for each kidney was calculated by the sum of all the 100 scores, with a maximum score of 300. […]

[2] = test system: dismetabolic neuropathies; settings: animal model of diabetes by streptozotocin; cited from earlier work

For `CCCCCCCCCCCCCCCC(=O)NCCO` [PEA, Palmitoylethanolamide], the “functional and tissue parameters for kidneys (plasma AST, γGT, creatinine, urea; MDA levels, MPO renal activity, histologic assessment)” value [1] is listed as “neither Silymarin alone nor PEA alone, when used at the same doses as in the combination, showed an improvement effect”, the allodynia [2] is listed as “suppresses allodynia” and the blood insulin levels [2] is listed as “increase in blood insulin levels”. The body weight [2] was “partial body weight recovery”.
